In the supplement of paper PMC4862054:

tested on: CAL-51; experiment: normalised response (% of control), CellTiter-Glo; higher = more viable cells (100 = DMSO, 0 = benzethonium chloride kill control); details: incubation time: 72 h
Summary of the method: (§1)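 In 384-well plates holding compound at 5 concentrations in 10-fold steps over a 10,000-fold range specific to each compound, breast cancer cell lines were seeded as 20 µl suspension and incubated 72 h. CellTox Green fluorescence was measured at 485/520 nm, after which CellTiter-Glo luminescence was measured following 10 min at room temperature. Plate signals were normalised to 0.1 % DMSO (100) and a positive kill control (0), and each value is the normalised signal at a single concentration.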

| Structure (SMILES) | normalised response |
| --- | --- |
| c1cc(CN2CCCNCCNCCCNCC2)ccc1CN1CCCNCCNCCCNCC1 [Plerixafor] (1000 nM) | 111% |
| CC(C)N(CCCNC(=O)Nc1ccc(C(C)(C)C)cc1)C[C@H]1O[C@@H](n2cc(Br)c3c(N)ncnc32)[C@H](O)[C@@H]1O [SGC0946] (1 nM) | 104% |
| CC(C)N(CCCNC(=O)Nc1ccc(C(C)(C)C)cc1)C[C@H]1O[C@@H](n2cc(Br)c3c(N)ncnc32)[C@H](O)[C@@H]1O [SGC0946] (10 nM) | 108% |
| CC(C)N(CCCNC(=O)Nc1ccc(C(C)(C)C)cc1)C[C@H]1O[C@@H](n2cc(Br)c3c(N)ncnc32)[C@H](O)[C@@H]1O [SGC0946] (1000 nM) | 118% |
| CNC(=O)c1cc(Oc2ccc(NC(=O)Nc3ccc(Cl)c(C(F)(F)F)c3)cc2)ccn1 [Sorafenib] (0.1 nM) | 118% |
| CCN(CC)CCNC(=O)c1c(C)[nH]c(/C=C2\C(=O)Nc3ccc(F)cc32)c1C [Sunitinib] (0.1 nM) | 81.7% |
| CCN(CC)CCNC(=O)c1c(C)[nH]c(/C=C2\C(=O)Nc3ccc(F)cc32)c1C [Sunitinib] (1 nM) | 141% |
| CC[C@@]1(O)C(=O)OCc2c1cc1n(c2=O)Cc2cc3c(CN(C)C)c(O)ccc3nc2-1 [Topotecan] (1 nM) | 68.1% |

tested on: SK-BR-3; experiment: as above; details: incubation time: 72 h
Summary of the method: as §1

| Structure (SMILES) | normalised response |
| --- | --- |
| Cc1c(Cn2c(C)nc3c(C(=O)O)cc(N4CCOCC4)cc32)cccc1C(F)(F)F (1000 nM) | 106% |
| CCCCC/C=C/C=C1/C(=O)C=C[C@@H]1C/C=C\CCCC(=O)O [15D-PGJ2] (80 nM) | 103% |
| CS(=O)(=O)N1CCN(Cc2cc3nc(-c4cccc5[nH]ncc45)nc(N4CCOCC4)c3s2)CC1 [Pictilisib] (1000 nM) | 40.4% |
| c1cc(CN2CCCNCCNCCCNCC2)ccc1CN1CCCNCCNCCCNCC1 [Plerixafor] (1000 nM) | 80% |
| CC(C)N(CCCNC(=O)Nc1ccc(C(C)(C)C)cc1)C[C@H]1O[C@@H](n2cc(Br)c3c(N)ncnc32)[C@H](O)[C@@H]1O [SGC0946] (1 nM) | 97.5% |
| CC(C)N(CCCNC(=O)Nc1ccc(C(C)(C)C)cc1)C[C@H]1O[C@@H](n2cc(Br)c3c(N)ncnc32)[C@H](O)[C@@H]1O [SGC0946] (10 nM) | 105% |
| CC(C)N(CCCNC(=O)Nc1ccc(C(C)(C)C)cc1)C[C@H]1O[C@@H](n2cc(Br)c3c(N)ncnc32)[C@H](O)[C@@H]1O [SGC0946] (1000 nM) | 95.7% |
| CNC(=O)c1cc(Oc2ccc(NC(=O)Nc3ccc(Cl)c(C(F)(F)F)c3)cc2)ccn1 [Sorafenib] (0.1 nM) | 102% |
| CCN(CC)CCNC(=O)c1c(C)[nH]c(/C=C2\C(=O)Nc3ccc(F)cc32)c1C [Sunitinib] (0.1 nM) | 114% |
| CCN(CC)CCNC(=O)c1c(C)[nH]c(/C=C2\C(=O)Nc3ccc(F)cc32)c1C [Sunitinib] (1 nM) | 111% |
| CC[C@@]1(O)C(=O)OCc2c1cc1n(c2=O)Cc2cc3c(CN(C)C)c(O)ccc3nc2-1 [Topotecan] (1 nM) | 99.2% |

tested on: Hs578T; experiment: as above; details: incubation time: 72 h
Summary of the method: as §1

| Structure (SMILES) | normalised response |
| --- | --- |
| Cc1c(Cn2c(C)nc3c(C(=O)O)cc(N4CCOCC4)cc32)cccc1C(F)(F)F (1000 nM) | 103% |
| CCCCC/C=C/C=C1/C(=O)C=C[C@@H]1C/C=C\CCCC(=O)O [15D-PGJ2] (80 nM) | 107% |
| CS(=O)(=O)N1CCN(Cc2cc3nc(-c4cccc5[nH]ncc45)nc(N4CCOCC4)c3s2)CC1 [Pictilisib] (1000 nM) | 64.3% |
| c1cc(CN2CCCNCCNCCCNCC2)ccc1CN1CCCNCCNCCCNCC1 [Plerixafor] (1000 nM) | 91.4% |
| CC(C)N(CCCNC(=O)Nc1ccc(C(C)(C)C)cc1)C[C@H]1O[C@@H](n2cc(Br)c3c(N)ncnc32)[C@H](O)[C@@H]1O [SGC0946] (1 nM) | 96% |
| CC(C)N(CCCNC(=O)Nc1ccc(C(C)(C)C)cc1)C[C@H]1O[C@@H](n2cc(Br)c3c(N)ncnc32)[C@H](O)[C@@H]1O [SGC0946] (10 nM) | 98.1% |
| CC(C)N(CCCNC(=O)Nc1ccc(C(C)(C)C)cc1)C[C@H]1O[C@@H](n2cc(Br)c3c(N)ncnc32)[C@H](O)[C@@H]1O [SGC0946] (1000 nM) | 103% |
| CNC(=O)c1cc(Oc2ccc(NC(=O)Nc3ccc(Cl)c(C(F)(F)F)c3)cc2)ccn1 [Sorafenib] (0.1 nM) | 98.3% |
| CCN(CC)CCNC(=O)c1c(C)[nH]c(/C=C2\C(=O)Nc3ccc(F)cc32)c1C [Sunitinib] (0.1 nM) | 93.5% |
| CCN(CC)CCNC(=O)c1c(C)[nH]c(/C=C2\C(=O)Nc3ccc(F)cc32)c1C [Sunitinib] (1 nM) | 97.7% |
| CC[C@@]1(O)C(=O)OCc2c1cc1n(c2=O)Cc2cc3c(CN(C)C)c(O)ccc3nc2-1 [Topotecan] (1 nM) | 105% |

tested on: MDA-MB-436; experiment: as above; details: incubation time: 72 h
Summary of the method: as §1

| Structure (SMILES) | normalised response |
| --- | --- |
| Cc1c(Cn2c(C)nc3c(C(=O)O)cc(N4CCOCC4)cc32)cccc1C(F)(F)F (1000 nM) | 99.5% |
| CCCCC/C=C/C=C1/C(=O)C=C[C@@H]1C/C=C\CCCC(=O)O [15D-PGJ2] (80 nM) | 98.5% |
| CS(=O)(=O)N1CCN(Cc2cc3nc(-c4cccc5[nH]ncc45)nc(N4CCOCC4)c3s2)CC1 [Pictilisib] (1000 nM) | 72.7% |
| c1cc(CN2CCCNCCNCCCNCC2)ccc1CN1CCCNCCNCCCNCC1 [Plerixafor] (1000 nM) | 102% |
| CC(C)N(CCCNC(=O)Nc1ccc(C(C)(C)C)cc1)C[C@H]1O[C@@H](n2cc(Br)c3c(N)ncnc32)[C@H](O)[C@@H]1O [SGC0946] (1 nM) | 102% |
| CC(C)N(CCCNC(=O)Nc1ccc(C(C)(C)C)cc1)C[C@H]1O[C@@H](n2cc(Br)c3c(N)ncnc32)[C@H](O)[C@@H]1O [SGC0946] (10 nM) | 92.3% |
